The source of these data is patent US8211881B2, “Cholesterol-mimetic pyrene probes” (Centre National de la Recherche Scientifique, priority 2005, dated 2012).

The conditions of series [1]: in DMPC; cited from earlier work.
For series [2], the target named is T1, GPCR μ with opioids (hMOP) (Homo sapiens, UniProt P35372).
T1 construct: expressed in transfected cells; host or cells: SH-SY5Y neuroblastoma cells
Description: Fluorescence spectra of SH-SY5Y cells overexpressing hMOP, marked with pyrene-ketone-cholesterol (4), before and after agonist addition (FIG. 2). The class given is cell-based. Conditions: agonist under saturation conditions, probe of formula (4).
Description: Confluence cells immobilised on a 22 by 22 mm silica slice are placed in a 35 mm diameter Petri dish and covered by 1.2 ml of a 0.22 μm-filtered solution and composed of 15 ml of base medium (DMEM with 1% foetal calf serum) plus 1 ml solution of methyl-β-cyclodextrins loaded with Pyrene cholesterol (4) or (7). The mixture is left to incubate at 37° C. for between 1 and 15 mn according to the desired marking rate. Then the medium is replaced 4 times with 1.2 ml of PBS Ca++Mg++.
The images are produced with a Zeiss axioplanll microscope using a 63× oil-immersion objective (Plan-Neofluoar, NA=1.4) and a CCD camera (C2400-75i Hamamatsu) equipped with the Argus 20 system (Hamamatsu) which removes the background noise directly on the preparation corresponding to the following mounting: after the slice carrying the marked cells has been turned upside-down on a slide provided with cross-pieces, a chamber the volume of which is close to 120 μl is thus produced and filled with DMEM medium . […]
The fluorescence spectra are produced on these mountings on an AMINCO 500 spectrofluorimeter. The excitation wavelength is 335 nm bp 5 nm, the emission spectrum being recorded after 370 nm bp 4 nm and with a resolution of 0.25 nm per point.

T1 sequence (P35372 whole entry): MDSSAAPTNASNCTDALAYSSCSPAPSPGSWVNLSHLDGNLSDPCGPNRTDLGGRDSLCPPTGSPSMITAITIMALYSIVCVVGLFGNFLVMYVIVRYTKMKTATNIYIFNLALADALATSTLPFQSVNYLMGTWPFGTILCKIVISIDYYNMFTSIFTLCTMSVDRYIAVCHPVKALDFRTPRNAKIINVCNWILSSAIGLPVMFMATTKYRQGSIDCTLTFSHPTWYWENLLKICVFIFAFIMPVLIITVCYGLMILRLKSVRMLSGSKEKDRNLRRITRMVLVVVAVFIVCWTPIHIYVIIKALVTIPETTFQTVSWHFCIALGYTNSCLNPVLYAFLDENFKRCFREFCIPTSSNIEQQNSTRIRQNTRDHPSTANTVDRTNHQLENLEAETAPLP

One may read the melting point as the temperature, or range, at which the solid turns liquid. On to `C[C@]12CC[C@H]3[C@@H](CC=C4C[C@@H](O)CC[C@@]43C)[C@@H]1CC[C@@H]2C(=O)CCc1ccc2ccc3cccc4ccc1c2c34` [pyrene-ketone-cholesterol, 3β-hydroxy-pregn-5-ene-21-(1-methylpyrenyl)-20-one], for which the melting point was 199 °C.
Turning to `CC(C)CCC[C@@H](C)[C@H]1CC[C@H]2[C@@H]3CC=C4C[C@@H](O)CC[C@]4(C)[C@H]3CC[C@]12C` [cholesterol], in series [1], the “solubility in membrane lipids” value was 68%.
Turning to `C[C@@H](NC(=O)[C@@H](N)Cc1ccc(O)cc1)C(=O)NCC(=O)N(C)[C@@H](Cc1ccccc1)C(=O)NCCO` [DAMGO], the “change of membrane polarity (band I1 intensity, I3 and I4 unchanged) after addition of the agonist” value in series [2] is reported as “reduction in the membrane polarity”.
Consider `C=C(CCc1ccc2ccc3cccc4ccc1c2c34)[C@H]1CC[C@H]2[C@@H]3CC=C4C[C@@H](O)CC[C@]4(C)[C@H]3CC[C@]12C`, for which the melting point was found to be 84 °C.
